From ChEMBL document CHEMBL5584256, “Bromine/Sulfur-Substituted 9H-Carbazoles Produced by the Marine-Derived Streptomyces sp. OUCMDZ-5511 upon NaBr Exposure” (J Nat Prod, 2024)
Active and inactive are the calls of the source. No cut-off for these calls is given here.

What was measured:
Danio rerio [1] = organism: Danio rerio; assay: Anti-inflammatory activity in transgenic zebrafish harboring Tg (zlyz:EGFP) assessed as reduction in CuSO4-induced IL-8 mRNA level at 5 to 15 uM preincubated for 2 hrs followed by CuSO4 treatment for 45 mins […]; format: functional, organism-based; conditions: dose 5-15 µM, time 165.0 min
Danio rerio [2] = organism: Danio rerio; assay: Anti-inflammatory activity in transgenic zebrafish harboring Tg (zlyz:EGFP) assessed as reduction in CuSO4-induced MAP3K7 mRNA level at 5 to 15 uM preincubated for 2 hrs followed by CuSO4 treatment for 45 mins […]; format: functional, organism-based; conditions: dose 5-15 µM, time 165.0 min
Danio rerio [3] = organism: Danio rerio; assay: Anti-inflammatory activity in transgenic zebrafish harboring Tg (zlyz:EGFP) assessed as reduction in CuSO4-induced immune cell migration at 10 uM preincubated for 2 hrs followed by CuSO4 treatment for 45 mins by fluorescence microscopy; format: functional, organism-based; conditions: time 165.0 min
Danio rerio [4] = organism: Danio rerio; assay: Anti-inflammatory activity in transgenic zebrafish harboring Tg (zlyz:EGFP) assessed as reduction in CuSO4-induced immune cell migration at 5 to 15 uM preincubated for 2 hrs followed by CuSO4 treatment for 45 mins by fluorescence microscopy; format: functional, organism-based; conditions: dose 5-15 µM, time 165.0 min
Danio rerio [5] = organism: Danio rerio; assay: Anti-inflammatory activity in transgenic zebrafish harboring Tg (zlyz:EGFP) assessed as reduction in CuSO4-induced IRAK1 mRNA level at 5 to 15 uM preincubated for 2 hrs followed by CuSO4 treatment for 45 mins […]; format: functional, organism-based; conditions: dose 5-15 µM, time 165.0 min
[6] = Toxicity in transgenic zebrafish harboring Tg (zlyz:EGFP) preincubated for 2 hrs followed by CuSO4 treatment for 45 mins; parameters: species or system Danio rerio; conditions: in vivo, time 165 min
Danio rerio [7] = organism: Danio rerio; assay: Anti-inflammatory activity in transgenic zebrafish harboring Tg (zlyz:EGFP) assessed as reduction in CuSO4-induced p38 mRNA level at 5 to 15 uM preincubated for 2 hrs followed by CuSO4 treatment for 45 mins […]; format: functional, organism-based; conditions: dose 5-15 µM, time 165.0 min
Danio rerio [8] = organism: Danio rerio; assay: Anti-inflammatory activity in transgenic zebrafish harboring Tg (zlyz:EGFP) assessed as reduction in CuSO4-induced AP-1 mRNA level at 5 to 15 uM preincubated for 2 hrs followed by CuSO4 treatment for 45 mins […]; format: functional, organism-based; conditions: dose 5-15 µM, time 165.0 min
Danio rerio [9] = organism: Danio rerio; assay: Anti-inflammatory activity in transgenic zebrafish harboring Tg (zlyz:EGFP) assessed as reduction in CuSO4-induced TRAF6 mRNA level at 5 to 15 uM preincubated for 2 hrs followed by CuSO4 treatment for 45 mins […]; format: functional, organism-based; conditions: dose 5-15 µM, time 165.0 min
Danio rerio [10] = organism: Danio rerio; assay: Anti-inflammatory activity in transgenic zebrafish harboring Tg (zlyz:EGFP) assessed as reduction in CuSO4-induced TGF-beta mRNA level at 5 to 15 uM preincubated for 2 hrs followed by CuSO4 treatment for 45 mins […]; format: functional, organism-based; conditions: dose 5-15 µM, time 165.0 min
Danio rerio [11] = organism: Danio rerio; assay: Anti-inflammatory activity in transgenic zebrafish harboring Tg (zlyz:EGFP) assessed as reduction in CuSO4-induced MYD88 mRNA level at 5 to 15 uM preincubated for 2 hrs followed by CuSO4 treatment for 45 mins […]; format: functional, organism-based; conditions: dose 5-15 µM, time 165.0 min
Danio rerio [12] = organism: Danio rerio; assay: Anti-inflammatory activity in transgenic zebrafish harboring Tg (zlyz:EGFP) assessed as increase in CuSO4-reduced PPAR-gamma mRNA level at 5 to 15 uM preincubated for 2 hrs followed by CuSO4 treatment for 45 mins […]; format: functional, organism-based; conditions: dose 5-15 µM, time 165.0 min
Danio rerio [13] = organism: Danio rerio; assay: Anti-inflammatory activity in transgenic zebrafish harboring Tg (zlyz:EGFP) assessed as reduction in CuSO4-induced IRAK4 mRNA level at 5 to 15 uM preincubated for 2 hrs followed by CuSO4 treatment for 45 mins […]; format: functional, organism-based; conditions: dose 5-15 µM, time 165.0 min
Danio rerio [14] = organism: Danio rerio; assay: Anti-inflammatory activity in transgenic zebrafish harboring Tg (zlyz:EGFP) assessed as reduction in CuSO4-induced IKK-beta mRNA level at 5 to 15 uM preincubated for 2 hrs followed by CuSO4 treatment for 45 mins […]; format: functional, organism-based; conditions: dose 5-15 µM, time 165.0 min
Danio rerio [15] = organism: Danio rerio; assay: Anti-inflammatory activity in transgenic zebrafish harboring Tg (zlyz:EGFP) assessed as reduction in CuSO4-induced I-kappa-b-alpha mRNA level at 5 to 15 uM preincubated for 2 hrs followed by CuSO4 treatment for 45 mins […]; format: functional, organism-based; conditions: dose 5-15 µM, time 165.0 min
Danio rerio [16] = organism: Danio rerio; assay: Anti-inflammatory activity in transgenic zebrafish harboring Tg (zlyz:EGFP) assessed as reduction in CuSO4-induced NF-kappa-b mRNA level at 5 to 15 uM preincubated for 2 hrs followed by CuSO4 treatment for 45 mins […]; format: functional, organism-based; conditions: dose 5-15 µM, time 165.0 min

| Compound | Activity (Danio rerio [1]) | Activity (Danio rerio [2]) | Activity (Danio rerio [3]) | Activity (Danio rerio [4]) | Activity (Danio rerio [5]) | LC50 at 0.75 h [6] | Activity (Danio rerio [7]) | Activity (Danio rerio [8]) | Activity (Danio rerio [9]) | Activity (Danio rerio [10]) | Activity (Danio rerio [11]) | Activity (Danio rerio [12]) | Activity (Danio rerio [13]) | Activity (Danio rerio [14]) | Activity (Danio rerio [15]) | Activity (Danio rerio [16]) |
| --- | --- | --- | --- | --- | --- | --- | --- | --- | --- | --- | --- | --- | --- | --- | --- | --- |
| COc1ccc2[nH]c3c(O)cccc3c2c1Br | Active | Active | Active | Active | Active | 68 µM | Active | Active | Active | Active | Active | Active | Active | Active | Active | Active |
| COc1ccc2[nH]c3c(ccc4scnc43)c2c1Br | – | – | Active | – | – | – | – | – | – | – | – | – | – | – | – | – |
